Series [1] relates to SD rats. Briefly: Acute toxicity experiment on SD rats by oral gavage. In kind it is in vivo. The conditions noted are these: single dose of 500 and 1000 mg/kg by oral gavage. The method, then:
(§1) SD rats were administered compound DC037009 with single dose of 500 and 1000 mg/kg by oral gavage.

Assay in series [2]: as above
It counts as in vivo. The conditions noted are these: rat, in vivo, single dose, oral gavage, read-out: maximum tolerated dose (MTD). The method, then: as §1

Series [3] in a line: Solubility in different pH solution and pH changes of the solution. It counts as physicochemical.
Series [4] in a line: In vitro metabolism in monkey liver microsomes. In kind it is in vitro ADME. The method, then: (§2) The total volume of each incubation system was 200 μL, and the medium was 100 mM phosphate buffer solution (PBS, pH7.4) comprising a final concentration of 3 μM DC037009 and 2 mM NADPH. A37° C. water bath was used for incubation. After 3 minutes of pre-incubation, various liver microsomes protein were added into the buffer-substrate-cofactors mixture to start reaction. The concentration of liver microsomal protein of various species was 1.0 mg/mL. After reacting 60 min, the reaction was terminated with isovolumetric ice-cold acetonitrile. The total volume of blank was 200 μL, and the medium was 100 mM phosphate buffer solution (PBS, pH 7.4), comprising a final concentration of 3 μM DC037009 and heat inactivated microsomal proteins. All incubation samples were double.
(§3) A 150 μL sample from each of double incubation samples was mixed. A 300 μL of acetonitrile was added, mixed by vortexing for 1 min, and centrifuged 5 min (11000 rpm). The supernatant was placed in a 10 mL tube, and dried in 40° C. with nitrogen stream. The residue was dissolved with 100 μL methanol/water (1:9, v/v). A 10 μL sample was taken for UPLC/Q-TOF MS analysis.

The subject of the next series is rat seminal vesicle. The series can be described thus: Seminal vesicle contraction caused by electrical stimulation of hypogastric nerve in normal rats. In kind it is in vivo. The conditions noted are these: P>0.05. The source says:
Effect of DC037009 on Seminal Vesicle Contraction Caused by Electrical Stimulation of Hypogastric Nerve in Normal Rats

A short description of series [5]: In vitro metabolism in human liver microsomes. It counts as in vitro ADME. The method, then: as §2, §3
On the technique in general: Microsomes from liver hold many membrane-bound enzymes, among them those of drug oxidation.

The subject of series [6] is SD rats. The series can be described thus: Repetitive dose toxicity experiment on SD rats for 14 days. In kind it is in vivo. The conditions noted are these: oral, 100 and 200 mg/kg for 14 days.
A further series in a line: pKa determination. In kind it is physicochemical.
Another series has as its target T1, α1A-AR (Homo sapiens, UniProt P35348).
T1 construct: expressed in transfected cells; host or cells: HEK293
T1 sequence (P35348 1-466): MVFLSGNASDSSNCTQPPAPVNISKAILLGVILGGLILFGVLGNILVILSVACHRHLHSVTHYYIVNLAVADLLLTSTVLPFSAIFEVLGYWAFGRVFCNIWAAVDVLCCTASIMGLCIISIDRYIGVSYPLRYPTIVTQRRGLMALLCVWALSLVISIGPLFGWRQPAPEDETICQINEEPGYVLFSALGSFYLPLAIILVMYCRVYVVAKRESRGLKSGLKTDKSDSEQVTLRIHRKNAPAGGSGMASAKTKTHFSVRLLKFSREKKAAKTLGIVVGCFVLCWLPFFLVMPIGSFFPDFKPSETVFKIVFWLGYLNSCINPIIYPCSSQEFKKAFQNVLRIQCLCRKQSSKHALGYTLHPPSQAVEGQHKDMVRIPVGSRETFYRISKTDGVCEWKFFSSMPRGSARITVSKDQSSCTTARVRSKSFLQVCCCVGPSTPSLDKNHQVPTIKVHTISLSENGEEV
The series can be described thus: Calcium mobilization (Fluo-4) antagonism of phenylephrine in HEK293 cells expressing α1A-AR/Gα16. In kind it is cell-based. The conditions noted are these: for IC50: HEK293 α1A-AR/Gα16, calcium mobilization, phenylephrine 30 nM; for α1B/α1A: ratio of cell IC50 values, calcium mobilization. The method, then:
HEK293 cells stably expressing α1A-AR/Gα16, α1B-AR/Gα16, α1D-AR/Gα16 were seeded in a 96-well plate, and cultured for 24 hours. Then the medium was removed and 40 μL Hank's balanced salt solution (HBSS: containing 5.4 mM KCl, 0.3 mM Na2HPO4, 0.4 mM KH2PO4, 4.2 mM NaHCO3, 1.3 mM CaCl2, 0.5 mM MgCl2, 0.6 mM MgSO4, 137 mM NaCl, 5.6 mM D-glucose, and 250 μM sulfinpyrazone, pH 7.4) containing 2 μM Fluo-4 AM was added into each well, and incubated at 37° C. for 45 min. Dye was removed and 50 μL of HBSS containing either test compound or 1% DMSO (negative control) was added. After incubation at room temperature for 10 min, Flex Station 3 microplate reader was used to read the value. At specified time points, 25 μL of agonist (phenylephrine, final concentration 30 nM) was dispensed into the well automatically using the reader and fluorescence intensity change of dye caused by intracellular calcium concentration change was detected at an excitation wavelength of 485 nm and an emission wavelength of 525 nm.
After incubation with different drugs, the reaction rate of cells to 1-AR agonist phenylephrine was calculated as follows: Reaction rate %=(D−B)/(S−B)*100%;
The reaction rate of the same drug at different doses was tested using GraphPad Prism software by non-linear regression analysis, and the dose-response curve was obtained and IC50 values was measured. Data were obtained from three separate experiments, and each experiment included three duplicate wells.

Series [7] can be described thus: Stability of the compound on heating. To be noted: heated at 80° C. for 24 hours. It counts as physicochemical. The method, then:
Compound DC037009 was heated at 80° C. for 24 hours, and the compound purity only varied 0.5%.

Series [8] can be described thus: In vitro metabolism in rat liver microsomes. It counts as in vitro ADME. The method, then:
as §2, §3

[9] abbreviates: pH = 1 solution after adding compound.
The mark [10] stands for this setting: pH = 2 solution after adding compound.
The mark [11] stands for this setting: pH = 4 solution after adding compound.
Setting [12] is: pH = 6 solution after adding compound.
[13] abbreviates: pH = 8 solution after adding compound.
Where [14] appears, read: 3 μM DC037009, 1.0 mg/mL microsomal protein, NADPH, 60 min, UPLC/Q-TOF MS.

Values after ≈ are worked out from the molar mass of the structure shown. Where two headings read alike, the source gives them in different places.

For orientation: MTD means the highest dose tested that stayed within the study's limit of toxicity. In general, solubility refers to the concentration that dissolves in the medium under given conditions. A word on the pKa: it is the pH at which an ionisable group is half protonated. By IC50 is commonly meant the concentration at which inhibition is half-maximal.

Take `COc1cc2c(cc1OC)CN1CCc3cc4c(cc3[C@@H]1C2)OCO4` [DC037009, S-(−)-2,3-methylenedioxy-10,11-dimethoxy-5,8,13,13a-tetrahydro-6H-dibenzo[a,g]quinolizine]: the changes after anatomy result in the series with SD rats [1] was “no obvious drug-related changes”. Also, in series [2], the MTD came out at 1000 mg/kg. The “pH of solution after adding compound” value in [3] is recorded as “would increase”. Besides, in series [3], the “solubility in acidic solution compared with alkaline solution” value is “greater than that in alkaline solution”. For the same molecule, the solubility in series [3] (pH 2 solution, pH 2, simulated gastric fluid, pH = 2 solution, read-out: Solubility (1)) was above 1000 µg/mL; in series [3] (pH 2 solution, pH 2, simulated gastric fluid, pH = 2 solution, read-out: Solubility (2)), above 1000 µg/mL; in series [3] (pH 4 solution, pH 4, aqueous buffer, pH = 4 solution, read-out: Solubility (1)), 401 µg/mL (≈ 1180 µM); in [3] (pH 4 solution, pH 4, aqueous buffer, pH = 4 solution, read-out: Solubility (2)) it was 403 µg/mL (≈ 1190 µM); in series [3] (pH = 1 solution, pH 1, simulated gastric fluid, pH = 1 solution, read-out: Solubility (1)), above 1000 µg/mL; in series [3] (pH = 1 solution, pH 1, simulated gastric fluid, pH = 1 solution, read-out: Solubility (2)), above 1000 µg/mL. Besides, the solubility in series [3] (pH = 6 solution, pH 6, aqueous buffer, pH = 6 solution, read-out: Solubility (1)) was 46 µg/mL (≈ 136 µM); in series [3] (pH = 6 solution, pH 6, aqueous buffer, pH = 6 solution, read-out: Solubility (2)), 50.2 µg/mL (≈ 148 µM); in [3] (pH = 8 solution, pH 8, aqueous buffer, pH = 8 solution, read-out: Solubility (1)), below 10 µg/mL; in series [3] (pH = 8 solution, pH 8, aqueous buffer, pH = 8 solution, read-out: Solubility (2)) it was below 10 µg/mL. The Dissolving capacity result was “Slightly soluble” in series [3] (pH = 1 solution); “Slightly soluble” in series [3] (pH = 2 solution); “Slightly soluble” in series [3] (pH = 4 solution); “Sparingly” in series [3] (pH = 6 solution); “Sparingly” in series [3] (pH = 8 solution). The “pH value (1)” value in series [3] (setting [9]) stood at 1.09; in [3] (setting [10]), 2.02; in series [3] (setting [11]), 5.02; in series [3] (setting [12]), 6.11; in series [3] (setting [13]), 8.06. Further, the “pH value (2)” value in [3] (setting [9]) amounted to 1.03; in series [3] (setting [10]), 2.07; in series [3] (setting [11]), 5.10; in series [3] (setting [12]), 6.14; in series [3] (setting [13]), 8.07. In addition, the “Mass area, monkey” value in [4] (setting [14]) was 1.6. Besides, the “kinds of metabolites detected in monkey liver microsome” value in series [4] (60 min incubation) is “seven”. In addition, the “metabolic stability in monkey liver microsome” value in series [4] (60 min incubation) was “unstable”. Besides, in the series on rat seminal vesicle, the “effect on contraction amplitude and area under contraction curve in rat seminal vesicle induced by electrical stimulation” value was “no significant inhibitive effect”. In [5] (setting [14]), the “Mass area, Human” value is 416.8. In [5] (60 min incubation), the “kinds of metabolites detected in human liver microsome” value was “Four”. Also, in series [5] (60 min incubation), the “metabolic stability in human liver microsome” value was “relatively higher”. Also, the “changes of blood and coagulation indicators and serum biochemical indicators” value in the series on SD rats [6] is “did not show any toxicological significance”. Further, the death entry with SD rats [6] was “no death rat was found”. In addition, the gross anatomy entry in the series on SD rats [6] was “no pathological changes related to administrated drug”. Besides, the pKa in “pKa determination” (methanol, solvent CH3OH, read-out: pKa (CH3OH)) came to 6.81; in “pKa determination” (water, solvent H2O, read-out: pKa (H2O)), 7.28. Further, the IC50 on α1A-AR was found to be 29.8 nM. Further, the α1B/α1A at α1A-AR is on record as 175. In series [7], the “variation of compound purity” value was determined as 0.5%. Also, in [8] (setting [14]), the “Mass area, rat” value is on record as 115.4. In [8] (60 min incubation), the “kinds of metabolites detected in rat liver microsome” value was “eight”.
`COc1cc2c(cc1OCc1ccccc1)C[C@H]1c3cc4c(cc3CCN1C2)OCO4` [DC037016]: at α1A-AR, the concentration for half-maximal inhibition (IC50) worked out at 34.8 nM and the α1B/α1A is listed as 122.

These data come from patent US9737517B2, “Pharmaceutical use of hexahydro-dibenzo[a,g]quinolizine compounds” (SHANGHAI INSTITUTE OF MATERIA MEDICA, CHINESE ACADEMY OF …, priority 2013, dated 2017).
